# Laboratory results: patent US10342823B2, “Topical and oral formulations comprising taurine and magnesium for the prevention and treatment of acne” (priority 2015, dated 2019)
# What was measured:
# [1] = test system: acne; test: Study Volunteer experiences with oral taurine-magnesium treatment regimens; assay type: in vivo, human; details: for Treatment Outcome: TAU 1500 mg/day, Mg 0
# Source text: The following non-limiting examples show Study Volunteer experiences with various taurine-magnesium treatment regimens. Volunteers were listed in the chronological order of the start of their taking full daily doses of taurine with magnesium.
# Severity of acne was the following: Volunteers 1 and 2 had sporadic mild acne, Volunteers 3 and 4 had chronic cyclic mild acne, Volunteer 5 had chronic acne that appeared to be between mild and moderate, Volunteer 6 had chronic severe acne with scarring, Volunteer 7 had chronic moderate acne, Volunteer 8 had frequent mild acne, and Volunteer 9 had acne that appeared to be between mild and moderate.
# The data provided in the Examples support the surprising conclusion that relatively high doses of taurine together with magnesium provide excellent treatment and in some cases prevention of mild to severe acne. […] As described in the Examples, some Volunteers, in addition to taking their recommended supplements of taurine and magnesium, for some weeks or months took other micronutrient supplements or even a multivitamin/mineral supplement containing an extra low dose of magnesium.
# [2] = target: T1, LXR-alpha (Homo sapiens, UniProt Q13133); details: liver cells in vitro; cited from earlier work
# T1 construct: host or cells: liver cells in vitro
# T1 sequence (Q13133 1-447): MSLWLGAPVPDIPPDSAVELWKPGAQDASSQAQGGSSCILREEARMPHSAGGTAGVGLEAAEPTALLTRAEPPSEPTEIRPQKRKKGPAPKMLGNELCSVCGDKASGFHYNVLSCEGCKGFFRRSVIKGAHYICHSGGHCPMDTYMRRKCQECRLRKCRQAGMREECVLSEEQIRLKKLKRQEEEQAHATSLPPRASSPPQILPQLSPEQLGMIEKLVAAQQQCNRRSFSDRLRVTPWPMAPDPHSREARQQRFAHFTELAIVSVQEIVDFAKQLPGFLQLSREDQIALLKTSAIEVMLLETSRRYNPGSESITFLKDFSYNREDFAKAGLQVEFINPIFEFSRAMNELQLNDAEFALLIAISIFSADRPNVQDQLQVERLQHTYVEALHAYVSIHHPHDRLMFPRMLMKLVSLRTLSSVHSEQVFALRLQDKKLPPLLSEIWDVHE
smiles,measurement,setting,value
NCCS(=O)(=O)O [taurine],Treatment Outcome,"[1]; Volunteer 2, mild acne with noticeable lesions, 5 days",No improvement
same,Improvement of acne lesions,"[1]; Volunteer 2, taurine alone 1.5 g daily, 5 days",no improvement
same,Treatment Outcome,"[1]; Volunteer 4, mild acne, break-out lesions with menstrual period, 7 days",Slight
same,Improvement of acne,"[1]; Volunteer 4, taurine only, first week",slight improvement
same,Cellular lipid levels,[2],dose-dependent marked reduction
same,LXR-alpha ligand activity / lipogenesis,[2],ligand of LXR-alpha that inhibits lipogenesis
